Assay results: US11970542B2, “Bispecific antibodies specific for treating hematological malignancies” (FRED HUTCHINSON CANCER CENTER, priority 2017, dated 2024)

How the values were obtained:
[1] = test system: surface CD38 on three multiple myeloma cells lines; assay: Antibody Binding Capacity assay (QuantiBrite), CD38 molecules; type: cell-based, human; details: 65-72 hours treatment
Experimental: FIG. 14. Antibody Binding Capacity assay (QuantiBrite, BD Biosciences) was used according to manufacturer instructions to measure the absolute number of CD38 molecules on the self-surface and accessible to antibody binding following 65-72 hours treatment of ATRA on three multiple myeloma cells lines.

[2] = test system: CD38 receptor expression in MM cell lines (U266, H929 and L363); assay: ATRA effect on CD38 receptor expression in vitro; type: cell-based, human
Excerpt: FIG. 12. […] These studies generated data to refine the process of manipulating CD38 receptor density for the purpose of increasing targeted delivery of radiolabeled DOTA-biotin after CD38 tumor cell pretargeting.

[3] = Blood clearance time course of BCMA bispecific with or without GSI; design: species or system mice; details: mouse, in vivo
Excerpt: FIG. 15. To ensure our clearing agent was able to effectively clear unbound agent from the blood stream, we conducted a time course experiment to test the impact of the clearing agent on the BCMA bispecific in the presence or absence of GSI. The percent of the injected dose (% ID) was monitored in the blood during a time course experiment by measuring the relative amount of Yttrium^90 in blood samples obtained from mice.

[4] = test system: surface BCMA on MM cell lines (RPMI8226, U266B1, MM1.R, H929) and primary MM samples; assay: Effect of GSI on BCMA expression, flow cytometry; type: cell-based, human
Excerpt: FIGS. 11A-11D. Dose dependent effect of the gamma secretase inhibitor, R04929097, on BCMA expression on 4 MM cell lines (11A, 11B) and 7 primary MM samples (11C, 11D). (11A) Surface BCMA expression by MM.1R cells cultured with the indicated concentrations of R04929097; staining with anti-BCMA antibody (black lines) compared to isotype control (grey line). (11B) Fold-change in surface BCMA expression by MM cell lines when cultured with the indicated concentrations of R04929097; fold change indicated relative to untreated MM cells of the same line. (11C) Surface BCMA expression by primary patient MM cells cultured with the indicated concentrations of R04929097. Staining was as described in regard to FIG. 11A. (11D) Fold change in BCMA on primary myeloma cells (n=7) cultured with vary amounts of GSI for […]. Primary and cell lines were cultured at 0.5×10^6 cells/mL. Fold change in BCMA is defined as Treated (MFIBCMA-MFIiso)/Control (MFIBCMA-MFIiso). Data is representative of 3 independent experiments with T cells derived from different donors.
The effect of GSI on BCMA expression was evaluated by incubating four MM cell lines (RPMI8226, U266B1, MM1.R, and H929) and primary MM samples in media containing 0 (DMSO), 0.01, 0.1, and 1.0 μM of GSI and measuring surface BCMA at 5 hr. […] These concentrations are 3-30 fold below the serum levels that are achieved by well tolerated oral dosing regimens of GSI in phase 1 trials in cancer patients.

[5] = test system: surface BCMA on three multiple myeloma cells lines; assay: Antibody Binding Capacity assay (QuantiBrite), BCMA molecules; type: cell-based, human; details: 5 μM, 17 hours incubation
Experimental: FIG. 13. Antibody Binding Capacity assay (QuantiBrite, Cat. No. 340495, BD Biosciences) was used according to manufacturer instructions to measure the absolute number of BCMA molecules on the self-surface and accessible to antibody binding following 17 hours incubation in the presence or absence of 5 μM gamma secretase inhibitor (R04929097) on three multiple myeloma cells lines.

| Structure (SMILES) | number of CD38 molecules on the cell surface [1] | CD38 receptor expression ([2]; U266 MM line, solubilized ATRA) | CD38 receptor expression ([2]; three MM cell lines (U266, H929 and L363)) | blood clearance of BCMA bispecific fusion in combination with GSI [3] | effect on cell viability ([4]; 0.01, 0.1, and 1.0 μM, 5 hr) | concentration of maximal increase in MFI of BCMA staining ([4]; 0.01-1.0 μM tested, 5 hr) | soluble BCMA levels ([4]; 0.1 and 1.0 μM) | change in MFI of BCMA staining ([4]; all 4 cell lines and primary MM cells, 5 hr) | time to upregulation of BCMA after GSI exposure ([4]; time course) | number of BCMA molecules on the cell surface [5] |
| --- | --- | --- | --- | --- | --- | --- | --- | --- | --- | --- |
| CC1=C(/C=C/C(C)=C/C=C/C(C)=C/C(=O)O)C(C)(C)CCC1 [ATRA, all-trans retinoic acid] | upregulates surface CD38 target expression | striking dose dependent increase in expression | dose dependent increase |  |  |  |  |  |  |  |
| CC(C)(C(=O)NCC(F)(F)C(F)(F)F)C(=O)N[C@@H]1C(=O)Nc2ccccc2-c2ccccc21 [R04929097] |  |  |  | further facilitated blood clearance | did not affect cell viability | 1.0 µM | decline in soluble BCMA levels | marked increase | ≤ 1 h | upregulates surface BCMA target expression |
